Test results taken from PMC8791477, “Evaluation of SARS-CoV-2 entry, inflammation and new therapeutics in human lung tissue cells” (PLoS Pathogens, 2022).
Counter-ions that a name gives are not always drawn. Like-named read-outs stand apart in the source and are kept apart here.

How the values were obtained:
[1] = tested on: VSV*ΔG(Luc)-S virus (SARS-CoV-2 spike, D614G); conditions: for EC50: read-out: EC50 HLT
[2] = tested on: VSV*ΔG(Luc)-S virus (SARS-CoV-2 spike, D614G); conditions: for EC50: read-out: EC50 Vero E6

**Q.** Which results are given for `[H]/N=C(/N)N/C(=N/[H])NCCc1ccccc1` [Phenformin]?
**A.** viral entry in HLT cells (in words) [1]: significantly reduced viral entry; EC50 [1]: 38.2 µM

**Q.** How did the “EC50 HLT” value [1] turn out when `CCCCCCCCCCCC(=O)O` [Lauric acid] was run?
**A.** No effect

**Q.** What about the “EC50 Vero E6” value [2] of the same compound?
**A.** No effect

**Q.** With `Cc1ccc(-c2cc(C(F)(F)F)nn2-c2ccc(S(N)(=O)=O)cc2)cc1` [Celecoxib] as the compound, how does the EC50 [1] read?
**A.** 55.7 µM

**Q.** And the EC50 [2]?
**A.** 13 µM

**Q.** Which results are given for `CCCCCCCCCCCC(=O)OCC(O)CO` (stereo not shown) [Monolaurin]?
**A.** EC50 HLT [1]: No effect; EC50 Vero E6 [2]: No effect

**Q.** Which results are given for `O=C1CN(/N=C/c2ccc([N+](=O)[O-])o2)C(=O)N1` [Nitrofurantoin]?
**A.** EC50 HLT [1]: No effect; EC50 Vero E6 [2]: No effect

**Q.** Which “EC50 HLT” value [1] does the source give for `Cc1cccn2c(=O)c(-c3nnn[nH]3)cnc12` [Pemirolast, Pemirolast potassium] here?
**A.** No effect

**Q.** And the “EC50 Vero E6” value [2]?
**A.** No effect

**Q.** What does the source list for `NC(=O)[C@@H]1CCCN1C(=O)[C@H](Cc1c[nH]cn1)NC(=O)[C@@H]1CCC(=O)N1` [Protilerin]?
**A.** EC50 HLT [1]: No effect; EC50 Vero E6 [2]: No effect

**Q.** What does the source list for `C[C@]12C=CC(=O)C=C1CC[C@@H]1[C@@H]2C(=O)C[C@@]2(C)[C@H]1CC[C@]2(O)C(=O)CO` [Prednisone]?
**A.** EC50 HLT [1]: Some effect; viral entry in HLT cells (in words) [1]: partial reduction of viral entry; EC50 Vero E6 [2]: No effect; viral entry in VeroE6 cells (in words) [2]: without any apparent impact

**Q.** Which results are given for `C[C@]12CCC(=O)C=C1CC[C@@H]1[C@@H]2[C@@H](O)C[C@@]2(C)[C@H]1CC[C@]2(O)C(=O)CO` [Cortisol]?
**A.** EC50 HLT [1]: No effect; EC50 Vero E6 [2]: No effect

**Q.** `CC(C)Cc1ccc(C(C)C(=O)O)cc1` (stereo not shown) [Ibuprofen] was tested. Which “EC50 HLT” value [1] did it give?
**A.** No effect

**Q.** What about the “EC50 Vero E6” value [2] of the same compound?
**A.** No effect

**Q.** How did the “viral entry in VeroE6 cells (in words)” value [2] turn out when `O=c1c(O)c(-c2ccc(O)c(O)c2)oc2cc(O)cc(O)c12` [Quercetin] was run?
**A.** some viral entry suppression

**Q.** What about the EC50 [2] of the same compound?
**A.** > 100 µM

**Q.** What does the source list for `CCCCCCCCCCCCOS(=O)(=O)[O-].[Na+]` [SLS, Sodium lauryl sulfate]?
**A.** EC50 [1]: > 100 µM; EC50 [2]: ~26.4 µM

**Q.** Which “EC50 HLT” value [1] does the source give for `O=c1c(O)c(-c2cc(O)c(O)c(O)c2)oc2cc(O)cc(O)c12` [Myricetin] here?
**A.** No effect

**Q.** What about the “EC50 Vero E6” value [2] of the same compound?
**A.** No effect

**Q.** With `N#C[C@@H]1CCCN1C(=O)CNC12CC3CC(CC(O)(C3)C1)C2` [Vidagliptin, Vildagliptin] as the compound, how does the “EC50 HLT” value [1] read?
**A.** No effect

**Q.** And the “EC50 Vero E6” value [2]?
**A.** No effect

**Q.** For `O=C1Nc2ccccc2/C1=C1/Nc2ccccc2C1=O` [Indirubin], which “EC50 HLT” value [1] is on record?
**A.** No effect

**Q.** And the “EC50 Vero E6” value [2]?
**A.** No effect

**Q.** How did the “EC50 HLT” value [1] turn out when `C[C@H](O)[C@H](O)[C@H]1CNc2nc(N)[nH]c(=O)c2N1` [Tetrahydrobiopterin, Tetrahydrobiopterin dihydrochloride] was run?
**A.** No effect

**Q.** And the “EC50 Vero E6” value [2]?
**A.** No effect

**Q.** What does the source list for `C[C@@H]1C[C@H]2[C@@H]3CCC4=CC(=O)C=C[C@]4(C)[C@@]3(F)[C@@H](O)C[C@]2(C)[C@@]1(O)C(=O)CO` [Dexamethasone]?
**A.** EC50 HLT [1]: No effect; EC50 Vero E6 [2]: No effect; viral entry in VeroE6 cells (in words) [2]: without any apparent impact

**Q.** How did the “EC50 HLT” value [1] turn out when `Cc1ccnc(NS(=O)(=O)c2ccc(N)cc2)n1` [Sulfamerazine] was run?
**A.** No effect

**Q.** What about the “EC50 Vero E6” value [2] of the same compound?
**A.** No effect

**Q.** `CC1(C)[C@@H](O[C@H]2O[C@H](C(=O)O)[C@@H](O)[C@H](O)[C@H]2O[C@@H]2O[C@H](C(=O)O)[C@@H](O)[C@H](O)[C@H]2O)CC[C@]2(C)[C@H]3C(=O)C=C4[C@@H]5C[C@@](C)(C(=O)O)CC[C@]5(C)CC[C@@]4(C)[C@]3(C)CC[C@@H]12` [Glycyrrhizin] was tested. Which “EC50 HLT” value [1] did it give?
**A.** No effect

**Q.** And the “EC50 Vero E6” value [2]?
**A.** No effect

**Q.** Which “viral entry in HLT cells with entry-factor blockers (in words)” value [1] does the source give for `CN(C)C(=O)COC(=O)Cc1ccc(OC(=O)c2ccc(NC(=N)N)cc2)cc1` [Camostat, Camostat mesylate] here?
**A.** significantly inhibited viral entry

**Q.** Which “EC50 HLT” value [1] does the source give for `CCCCCCCCCC(=O)OCC(O)CO` (stereo not shown) [Monocaprin] here?
**A.** No effect

**Q.** What about the “EC50 Vero E6” value [2] of the same compound?
**A.** No effect

**Q.** For `O=C1C[C@@H](c2ccc(O)c(O)c2)Oc2cc(O)cc(O)c21` [Eriodictyol], which “viral entry in HLT cells (in words)” value [1] is on record?
**A.** certain activity

**Q.** And the EC50 [1]?
**A.** 90 µM

**Q.** What does the source list for `N[C@@H](CC(=O)N1CCn2c(nnc2C(F)(F)F)C1)Cc1cc(F)c(F)cc1F` [Sitagliptin]?
**A.** EC50 HLT [1]: No effect; EC50 Vero E6 [2]: No effect

**Q.** `C[C@]1(Cn2ccnn2)[C@H](C(=O)O)N2C(=O)C[C@H]2S1(=O)=O` [Tazobactam] was tested. Which “EC50 HLT” value [1] did it give?
**A.** No effect

**Q.** And the “EC50 Vero E6” value [2]?
**A.** No effect

**Q.** Which results are given for `CC1=C(CC(=O)O)c2cc(F)ccc2/C1=C\c1ccc([S+](C)[O-])cc1` (stereo not shown) [Sulindac]?
**A.** EC50 [1]: > 100 µM; EC50 Vero E6 [2]: No effect

**Q.** What does the source list for Ergoloid mesylates?
**A.** SI HLT (CC50/EC50) [1]: 11.38; viral entry inhibition in HLT cells [1]: ~ 90%; EC50 [1]: 9.17 µM; SI VeroE6 (CC50/EC50) [2]: 3.9; EC50 [2]: 4.78 µM

**Q.** With `CC1(C)Cc2c(-c3ccccc3)c(-c3ccc(Cl)cc3)c(CC(=O)O)n2C1` [Licofelone] as the compound, how does the EC50 [1] read?
**A.** 32.2 µM

**Q.** How did the “SI HLT (CC50/EC50)” value [1] turn out when Ivermectin was run?
**A.** 7.75

**Q.** What about the “viral entry in HLT cells (in words)” value [1] of the same compound?
**A.** effective antiviral

**Q.** What about the EC50 [1] of the same compound?
**A.** 13 µM

**Q.** And the “SI VeroE6 (CC50/EC50)” value [2]?
**A.** 1.4

**Q.** And the EC50 [2]?
**A.** 13.9 µM

**Q.** `O=c1cc(-c2ccc(O)c(O)c2)oc2cc(O)cc(O)c12` [Luteolin] was tested. Which EC50 [1] did it give?
**A.** ~82.4 µM

**Q.** And the EC50 [2]?
**A.** ~70.7 µM

**Q.** With `Oc1ccc(CC2NCCc3cc(O)c(O)cc32)cc1` (stereo not shown) [Higenamine, Higenamine hydrochloride] as the compound, how does the “EC50 HLT” value [1] read?
**A.** No effect

**Q.** What about the “EC50 Vero E6” value [2] of the same compound?
**A.** No effect

**Q.** Which results are given for `CC(C)[C@H](N)C(=O)OCCOCn1cnc2c(=O)[nH]c(N)nc21` [Valaciclovir]?
**A.** viral entry in HLT cells (in words) [1]: some inhibitory potential; EC50 [1]: > 100 µM

**Q.** With `Cc1cc(O)c2c(=O)c3c(O)cc(O)c4c5c(O)cc(O)c6c(=O)c7c(O)cc(C)c8c1c2c(c34)c(c78)c65` [Hypericin] as the compound, how does the EC50 [1] read?
**A.** 0.31 µM

**Q.** And the EC50 [2]?
**A.** 1.24 µM

**Q.** With `CC(C)C(=O)OCC(=O)[C@@]12O[C@H](C3CCCCC3)O[C@@H]1C[C@H]1[C@@H]3CCC4=CC(=O)C=C[C@]4(C)[C@H]3[C@@H](O)C[C@@]12C` [Ciclesonide] as the compound, how does the EC50 [1] read?
**A.** 16.4 µM

**Q.** What about the EC50 [2] of the same compound?
**A.** 20.5 µM

**Q.** What does the source list for `COc1ccc2cc1Oc1ccc(cc1)C[C@H]1c3c(cc4c(c3Oc3cc5c(cc3OC)CCN(C)[C@@H]5C2)OCO4)CCN1C` [Cepharanthine]?
**A.** SI HLT (CC50/EC50) [1]: 2.64; SI VeroE6 (CC50/EC50) [2]: 48.47

**Q.** Which results are given for `Cc1cc(NS(=O)(=O)c2ccc(N)cc2)no1` [Sulfamethoxazole]?
**A.** EC50 HLT [1]: No effect; EC50 Vero E6 [2]: No effect

**Q.** With recombinant protein AXL as the compound, how does the “viral entry in HLT cells with entry-factor blockers (in words)” value [1] read?
**A.** inhibited SARS-CoV-2 entry

**Q.** Which results are given for `CN(C)C(=N)N=C(N)N` [Metformin]?
**A.** EC50 HLT [1]: No effect; EC50 Vero E6 [2]: No effect

**Q.** With `Nc1ncnc2c1ncn2[C@@H]1O[C@H](CO)[C@@H](O)[C@@H]1O` [Vidarabine] as the compound, how does the EC50 [1] read?
**A.** 51.6 µM

**Q.** What about the EC50 [2] of the same compound?
**A.** > 100 µM
